Source: patent US20030181426A1, “Compositions and methods for treating pain using cyclooxygenase-1 inhibitors” (priority 2002, published 2003)
Read-outs that look alike come from different tables or passages of the source.

Experiments:
phosphorylated CREB = experiment: pCREB immunoreactive cells in dorsal horn of PSNL rats; type: in vivo; conditions: for increased number of pCREB-IR cells in the ipsilateral dorsal horn: 5 days after injection, three weeks after PSNL
Method: Quantitative analysis of the pCREB expression in the dorsal horn of PSNL rats receiving either saline or ketorolac intraplantar injection was conducted. […] However, no significant difference in the mean optical density in a fixed area occupied by pCREB-IR cells was detected between both sides of the dorsal horn.

tactile allodynia [1] = experiment: L5 and L6 spinal nerve ligation (SNL) tactile allodynia, lidocaine and ketorolac; type: in vivo, male Sprague-Dawley rats
[2] = test system: tactile hypersensitivity after paw incision; experiment: Brennan model: tactile hypersensitivity after paw incision, von Frey withdrawal threshold; type: in vivo, male Sprague-Dawley rats
COX-1 and COX-2 = conditions: as known in the art / Warner, 1999; cited from earlier work
[3] = Phase I safety trial of intrathecal ketorolac in healthy volunteers; type: in vivo, humans
[4] = test system: locomotor activity after laparotomy; experiment: Post-laparotomy locomotor activity model; type: in vivo, rats
tactile allodynia [5] = experiment: Partial sciatic nerve ligation (PSNL) tactile allodynia, i.t. COX inhibitors; type: in vivo, Sprague-Dawley rats
Source text: A Sprague-Dawley rats (Harlan Industries, Indianapolis, Ind., USA), weighing 200-250 g, were used in this study. All animal surgical procedures were in conformity with the Wake Forest University guidelines on the ethical use of animals and studies were approved by the Animal Care and Use Committee. Animals were implanted with intrathecal catheters according to the method described previously. (Yaksh TL, 1976). Briefly, under halothane anesthesia (2-4% in oxygen/air), animals were placed prone in a stereotaxic frame and a small incision was made at the back of the neck. A small puncture was made in the atlanto-occipital membrane of the cistema magna and a polyethylene catheter (PE-10, 7.5 cm) was inserted so that the caudal tip reached the lumbar enlargement of the spinal cord. The rostral end of the catheter was exteriorized at the top of the head and the wound was closed with sutures. Animals were allowed 4-5 days to recover from the surgery and those displaying signs of motor dysfunction (fore limb or hind limb paralysis) were excluded from the study. Rats were anesthetized with 2-4% halothane in oxygen-air. For partial […] nerve ligation (PSNL), the left sciatic nerve was exposed at the high thigh level and one-third to one-half of the nerve was ligated with silk suture (size 6) as previously described (Shir et al., 1991). Animals were maintained after surgery with ad libitum food and water on a 12-h light/dark cycle. All rats were allowed to recover for 4 weeks after PSNL. By then, tactile allodynia was well established in the ipsilateral hindpaw.

PGE2 [6] = experiment: PGE2 concentration in cerebrospinal fluid of volunteers; type: in vivo, humans; conditions: for Pre-injection PGE2: CSF before injection; for Post-injection PGE2: CSF 60 min after injection
[7] = Ketorolac concentration in cerebrospinal fluid (HPLC); type: in vivo, humans; conditions: for concentration at 60 min: human, other: intrathecal (lumbar puncture), lumbar CSF 60 min after injection
Method: Escalation to the next dose was made only after review of side effects occurring at lower doses, with pre-defined stopping criteria. CSF samples were quantitatively extracted by C-18 reverse phase cartridge chromatography and eluted with acetonitrile. Concentrated eluates were injected on to a HPLC equipped with a Phenomenex 'Prodigy' C-18 reverse phase column (250 mm×4.6 mm). Peaks were detected with an Agilent Model 1100 UV detector set at a wavelength of 313. All unknowns, standards and controls contained an equal quantity of internal standard, 200 ng of indoprofen.

chronic pain = experiment: Intrathecal ketorolac in patients with chronic pain receiving spinal morphine (VAS); type: in vivo, humans
Source text: This study focused on safety, but efficacy measures were obtained by having patients rate their pain using a visual analog scale (VAS) before, and at intervals after, intrathecal injection of ketorolac. Data are available from the first 6 patients in this open label study.

[8] = not given; remark: listed apart in the source
noxious heat = experiment: Latency to paw withdrawal from noxious heat; type: in vivo, male Sprague-Dawley rats
Method: After Animal Care and Use Committee approval, adult male Sprague-Dawley rats (240-330 g; Harlan, Indianapolis, Ind.) were anesthetized with halothane. A catheter was inserted, as previously described, through a small nick in the cisterna magnum membrane into the intrathecal space and advanced 7.5 cm such that its tip lay in the lumbar intrathecal space. […] After catheter implantation, rats were housed individually with a 12 h/12 h light/dark cycle and an unlimited supply of water and food. Experiments occurred at least 6 days after surgery.

PGE2 [9] = experiment: CSF PGE2 concentrations in conscious dogs after i.t. ketorolac; type: in vivo; conditions: within 30 min of injection
[10] = intraplantar injection, vs saline injected rats, P<0.01
[11] = intrathecal ketorolac 50 μg, 1 week after 200 μg intrathecal lidocaine
[12] = intrathecal ketorolac 50 μg, 1 week after 300 μg intrathecal lidocaine
[13] = i.t. 50 μg, compared to i.t. saline control

O=C(c1ccccc1)c1ccc2n1CCC2C(=O)O (stereo not drawn) [ketorolac]
increased number of pCREB-IR cells in the ipsilateral dorsal horn (phosphorylated CREB; intraplantar injection): dramatically reduced
mean optical density of pCREB-IR cells, contralateral dorsal horn (phosphorylated CREB; [10]): significantly decreased
mean optical density of pCREB-IR cells, ipsilateral dorsal horn (phosphorylated CREB; [10]): significantly decreased
number of pCREB-IR cells in the contralateral dorsal horn (phosphorylated CREB; local injection, compared with saline injected PSNL rats): also decreased
increased number of pCREB-IR cells in the ipsilateral dorsal horn (phosphorylated CREB; peri-neural injection): dramatically reduced
systemic toxicity at large doses (dog, in vivo): gastrointestinal ulceration and bleeding
spinal neurotoxicity (i.t., dogs): no evidence for spinal neurotoxicity
tactile allodynia caused by SNL (tactile allodynia [1]; intrathecal ketorolac 50 μg alone): failed to attenuate
antiallodynic effect (tactile allodynia [1]; intrathecal ketorolac 50 μg, 1 week after 100 μg intrathecal lidocaine): failed to exert any antiallodynic effect
duration of reversal of tactile allodynia (tactile allodynia [1]; [11]): 4 h
tactile allodynia caused by SNL (tactile allodynia [1]; [11]): reversed tactile allodynia
duration of reversal of tactile allodynia (tactile allodynia [1]; [12]): 4 h
tactile allodynia caused by SNL (tactile allodynia [1]; [12]): reversed tactile allodynia
SNL-induced tactile allodynia (tactile allodynia [1]; intrathecal ketorolac 50 μg, 1 week following prior intrathecal ketorolac 50 μg): failed to alleviate
SNL-induced tactile allodynia (tactile allodynia [1]; intrathecal ketorolac 100 μg alone): failed to alleviate
SNL-induced tactile allodynia (tactile allodynia [1]; intrathecal ketorolac 100 μg, 1 week after intrathecal lidocaine): exhibited the antiallodynic effect
antiallodynic effect (tactile allodynia [1]; one day after intrathecal ketorolac, rats previously given 200 and 300 μg lidocaine): disappeared
withdrawal threshold (von Frey) after paw incision ([2]; i.t. 50 μg given on the first postoperative day, established tactile hypersensitivity, within 30 min): increased withdrawal threshold
withdrawal threshold (von Frey) after paw incision ([2]; i.t. 50 μg, pretreatment 15 min before surgery, compared to saline control 2 hr later and on the next day): increased withdrawal threshold
preference in inhibition of COX-1 and COX-2 (COX-1 and COX-2): one of the most selective COX-1 antagonists
headache ([3]; 0.5 mg i.t., one individual, 24 h after injection, resolved the following day): mild headache
heart rate prior to injection, range ([3]; entire group): 52-86 bpm
minimum heart rate at any time after injection, range ([3]; entire group): 45-69 bpm
heart rate prior to injection ([3]; entire group, mean ± SE): 67±2.1 bpm
minimum heart rate at any time after injection ([3]; entire group, mean ± SE): 57±1.7 bpm
heart rate ([3]; for 1 hr following ketorolac, significant within each dose group except 2.0 mg): decreased
side effects ([3]; i.t. 0.25, 0.5, 1, or 2 mg open label dose-escalation, early studies of 14 subjects): no side effects were observed
blood pressure, oxyhemoglobin saturation, end-tidal CO2 ([3]; i.t. 0.25-2 mg): did not affect
deviation of blood pressure, oxyhemoglobin saturation, end-tidal CO2 from pre-injection values ([3]; i.t. 0.25-2 mg): ≤ 10%
side effects at long-term follow up ([3]; i.t. 0.25-2 mg): no side effects
subjective neurologic symptoms ([3]; i.t. 0.25-2 mg): no subjective neurologic symptoms in any volunteer
symptomatic bradycardia ([3]; i.t. 0.25-2 mg): In no case
sedation, anxiety, gastrointestinal or genitourinary symptoms, or dizziness ([3]; i.t. 0.25-2 mg, at any time): No volunteer reported
neurologic examination ([3]; i.t. 0.25-2 mg, twenty volunteers): no effect
side effects ([3]; i.t., doses up to 1.0 mg): no side effects
ambulatory locomotor activity after laparotomy [4, 13]: increased
vertical locomotor activity after laparotomy [4, 13]: increased
locomotor activity in the absence of surgery ([4]; ketorolac alone): no effect
effect on morphine's effect on ambulatory activity ([4]; systemic ketorolac 5 mg/kg i.p. with morphine): potentiate morphine's effect
ambulatory activity after laparotomy ([4]; systemic, 5 mg/kg i.p.): failed to affect ambulatory activity
duration of reversal of withdrawal threshold (tactile allodynia [5]; 4 weeks after PSNL): 6 days
withdrawal threshold, ipsilateral hindpaw (tactile allodynia [5]; 4 weeks after PSNL, two hours following injection): significantly reversed to pre-lesion baseline
withdrawal threshold, ipsilateral hindpaw (tactile allodynia [5]; eight days after injection): returned to the pre-injection level
Pre-injection PGE2 (PGE2 [6]; 0.25 mg dose group): 4.7 ± 0.7 pg/mL
Post-injection PGE2 (PGE2 [6]; 0.25 mg i.t.): 6.0 ± 0.9 pg/mL
Pre-injection PGE2 (PGE2 [6]; 0.50 mg dose group): 5.6 ± 1.9 pg/mL
Post-injection PGE2 (PGE2 [6]; 0.50 mg i.t.): 3.8 ± 0.6 pg/mL
Pre-injection PGE2 (PGE2 [6]; 1.0 mg dose group): 4.1 ± 0.9 pg/mL
Post-injection PGE2 (PGE2 [6]; 1.0 mg i.t.): 8.5 ± 1.7 pg/mL
Pre-injection PGE2 (PGE2 [6]; 2.0 mg dose group): 4.9 ± 0.7 pg/mL
Post-injection PGE2 (PGE2 [6]; 2.0 mg i.t.): 7.5 ± 1.7 pg/mL
CSF PGE2 concentration 60 min after ketorolac injection (PGE2 [6]; entire study population): 6.1 ± 0.6 pg/mL
CSF PGE2 concentration prior to ketorolac injection (PGE2 [6]; entire study population): 4.9 ± 0.5 pg/mL
effect on CSF PGE2 concentrations (PGE2 [6]; entire study population, 60 min after injection): not affected
dose dependence of lumbar CSF drug concentration ([7]; 60 min after injection): apparent plateau at the 1 and 2 mg doses
concentration at 60 min ([7]; 0.5 mg, 0.50 mg i.t.): 13400 ± 1200 ng/mL
concentration at 60 min ([7]; 0.25 mg i.t.): 4600 ± 200 ng/mL
concentration at 60 min ([7]; 1.0 mg i.t.): 30700 ± 8800 ng/mL
concentration at 60 min ([7]; 2.0 mg i.t.): 33500 ± 5200 ng/mL
VAS pain (chronic pain; beginning 1 hour after injection and lasting throughout the remaining 3 hours of observation, n=6): significantly reduced
adverse events (chronic pain; i.t. 0.5 mg (5 patients) or 1.0 mg (1 patient), patients on spinal morphine): no significant adverse events
VAS pain after injection (chronic pain; n=6): 3
VAS pain prior to injection (chronic pain; n=6): 5
spinal neurotoxicity ([8]; i.t., rats): no evidence for spinal neurotoxicity
systemic toxicity at large doses ([8]; rat, in vivo): gastrointestinal ulceration and bleeding
antinociception (latency to paw withdrawal from noxious heat) (noxious heat; addition of ketorolac to clonidine): increased antinociception
antinociception (latency to paw withdrawal from noxious heat) (noxious heat; drug alone, rats with intrathecal catheter): did not
withdrawal threshold to noxious heat (noxious heat; i.t. ketorolac, rats): lack of effect
reduction of CSF PGE2 concentrations (PGE2 [9]): > 90%
